From paper PMC7076352 (Pharmaceutics, 2020)
Like-named read-outs stand apart in the source and are kept apart here.

Tests used:
CYP1A2 = molecular target: T1, CYP1A2 (Rattus norvegicus, UniProt P04799); test: In vitro cocktail CYP450 activity assay in rat liver microsomes, CYP1A2 (phenacetin probe)
T1 sequence (P04799 1-513): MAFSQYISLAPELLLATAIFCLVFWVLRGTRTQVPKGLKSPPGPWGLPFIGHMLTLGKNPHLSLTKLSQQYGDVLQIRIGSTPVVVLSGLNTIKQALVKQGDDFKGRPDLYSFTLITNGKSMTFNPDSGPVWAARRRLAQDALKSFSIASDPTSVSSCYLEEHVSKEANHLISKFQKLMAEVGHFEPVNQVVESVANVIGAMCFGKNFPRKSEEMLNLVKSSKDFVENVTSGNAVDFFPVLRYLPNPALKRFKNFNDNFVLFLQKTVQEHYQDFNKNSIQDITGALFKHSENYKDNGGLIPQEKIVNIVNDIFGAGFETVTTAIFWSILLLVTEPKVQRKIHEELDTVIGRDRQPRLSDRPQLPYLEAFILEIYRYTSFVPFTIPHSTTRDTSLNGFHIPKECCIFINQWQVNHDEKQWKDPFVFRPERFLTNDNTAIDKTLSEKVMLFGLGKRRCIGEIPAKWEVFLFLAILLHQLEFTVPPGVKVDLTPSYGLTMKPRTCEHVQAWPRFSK
Description: (§1) (OHBUP-[D6]) and 5 nM 4′-hydroxydiclofenac-[^13C6] (OHDIC-[^13C6]) as internal standards (ISs). […]
(§2) standard addition experiments. Each group included four concentration levels. For the PK […]
(§3) The probe compounds, viz. […]
(§4) chosen after incubating all the recruited substrates. In order to assure the linear relationship […]
(§5) The incubation system was also optimized in terms of substrate concentrations. The substrates concentrations of […]

CYP2E1 [1] = molecular target: T2, CYP2E1 (Rattus norvegicus, UniProt P05182); details: Sprague-Dawley, rat, 15 min, pH 7.4
CYP2E1 [2] = molecular target: T2, CYP2E1; details: IC50 CYP2E1, single components; RLM 0.2 mg/mL, 15 min, triplicate, mean ± SD
CYP2B6 = test: In vitro cocktail CYP450 activity assay in rat liver microsomes, CYP2B6 (bupropion probe)
Description: as §1, §2, §3, §4, §5

CYP2C9 = test: In vitro cocktail CYP450 activity assay in rat liver microsomes, CYP2C9 (tolbutamide probe)
Description: as §1, §2, §3, §4, §5

CYP2D6 = test: in vitro; details: Sprague-Dawley, rat
Description: as §1, §2, §3, §4, §5

CYP3A4 [3] = test: in vitro; details: for IC50: Sprague-Dawley, rat, microsomes
Description: as §1, §2, §3, §4, §5

CYP2C19 = test: In vitro cocktail CYP450 activity assay in rat liver microsomes, CYP2C19 (omeprazole probe)
Description: as §1, §2, §3, §4, §5

in vivo = test: in vivo; parameters: species or system Sprague-Dawley (SD) rats; details: Sprague-Dawley, plasma, rat
Description: At each time, 0.5 mL of blood was collected in the heparin sodium tubes. Plasma was separated by centrifugation at 4000 rpm for 10 min and stored below −80 °C until bioanalysis. Oasis PRiME HLB SPE cartridges (1 cc/30 mg, Waters, Milford, MA, USA) were used to process the plasma samples (Supplementary Materials).
The generic layout of instrumentation setup of the LVDI-UHPLC-MS/MS was conducted on a Shimadzu UHPLC system consisting of two LC-20ADXR pumps, a DGU-20A3R degasser, and a CBM-20A controller (Kyoto, Japan) with a SCIEX 4500 QTRAP mass spectrometer mounted with an electron spray ionization (ESI) interface as well as an electronic 6-port/2-channel valve (Foster City, CA, USA). Analyst software package (version 1.6.2, SCIEX) was implemented to control and synchronize the entire system, and also for data acquisition and processing. A single analytical run was fragmented into two phases, namely, loading and elution phases, by switching the electronic valve (Figure 2). At the loading phase, the valve was maintained at A-channel. The specimen aliquot of large volume delivered from the auto-sampler was captured onto a guard column. Meanwhile, the pumps were responsible for delivering the mobile phase at a high flow rate, aiming to dilute the sample solvent, thus facilitating the candidate constituents to concentrate on the pre-guard column. Then, the valve was automatically switched to the B-channel to trigger the elution phase. The trapped components were flushed from the pre-guard column into an analytical column, and underwent multiple reaction monitoring (MRM) analysis on the optimized LC gradients. The detailed information of LVDI-UHPLC-MS/MS analysis for pharmacokinetic and cocktail studies is shown in the Supplementary Materials section.

CYP3A4 [4] = details: read-out: Reported IC50; positive inhibitor of CYP3A4, literature ref 9; cited from earlier work
[5] = at the Cmax level in rat plasma, calculated from the dose–response curve

T2 sequence (P05182 whole entry): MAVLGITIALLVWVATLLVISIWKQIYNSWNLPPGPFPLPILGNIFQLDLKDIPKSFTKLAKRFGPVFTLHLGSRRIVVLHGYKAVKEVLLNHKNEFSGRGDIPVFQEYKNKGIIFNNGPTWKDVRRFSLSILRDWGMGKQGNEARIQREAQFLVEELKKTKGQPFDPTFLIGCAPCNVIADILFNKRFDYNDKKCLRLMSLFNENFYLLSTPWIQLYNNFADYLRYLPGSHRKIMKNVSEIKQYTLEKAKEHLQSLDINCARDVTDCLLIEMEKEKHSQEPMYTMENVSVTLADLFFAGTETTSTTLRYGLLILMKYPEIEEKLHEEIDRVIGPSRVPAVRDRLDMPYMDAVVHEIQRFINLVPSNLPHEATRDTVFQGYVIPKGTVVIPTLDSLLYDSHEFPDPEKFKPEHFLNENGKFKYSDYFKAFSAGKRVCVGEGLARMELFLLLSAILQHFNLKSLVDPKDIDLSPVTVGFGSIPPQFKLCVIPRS

With `CC(C)=CCC[C@](C)(O[C@@H]1O[C@H](CO)[C@@H](O)[C@H](O)[C@H]1O)[C@H]1CC[C@]2(C)[C@@H]1[C@H](O)C[C@@H]1[C@@]3(C)CC[C@H](O)C(C)(C)[C@@H]3[C@@H](O[C@@H]3O[C@H](CO)[C@@H](O)[C@H](O)[C@H]3O)C[C@]12C` [GRg1, ginsenoside Rg1] the IC50 (CYP1A2; IC50 CYP1A2, single components, RLM 0.2 mg/mL, 15 min, triplicate, mean ± SD) was 13.1 ± 8.24 µM, the “Response (% control) CYP1A2” value (CYP1A2; [5]) was 98.46 % control and the “Response (% control) CYP2E1” value (CYP2E1 [1]) was 99.57 % control. For the same compound, the IC50 (CYP2E1 [2]) was 34.1 ± 4.76 µM, the IC50 at 15 min (CYP2B6; Sprague-Dawley, rat, pooled rat liver microsomes, pH 7.4, probe bupropion (90 µM, in seven-probe cocktail), IC50 CYP2B6, single components, RLM 0.2 mg/mL, 15 min, triplicate, mean ± SD) was 11 ± 0.87 µM and the “Response (% control) CYP2B6” value (CYP2B6; [5]) was 98.23 % control. For the same compound, the IC50 at 15 min (CYP2C9; Sprague-Dawley, rat, pooled rat liver microsomes, pH 7.4, probe tolbutamide (18 µM, in seven-probe cocktail), IC50 CYP2C9, single components, RLM 0.2 mg/mL, 15 min, triplicate, mean ± SD) was 36.5 ± 1.32 µM, the “Response (% control) CYP2C9” value (CYP2C9; [5]) was 96.27 % control and the “Response (% control) CYP2D6” value (CYP2D6; 15 min, pH 7.4) was 99.88 % control. For the same compound, the IC50 at 15 min (CYP2D6; microsomes, pH 7.4, IC50 CYP2D6) was 55.7 ± 6.08 µM, the IC50 (CYP3A4 [3]; pH 7.4, IC50 CYP3A4, single components, RLM 0.2 mg/mL, 15 min, triplicate, mean ± SD) was 39.2 ± 4.57 µM and the “Response (% control) CYP3A4” value (CYP3A4 [3]; [5]) was 97.76 % control. For the same compound, the IC50 at 15 min (CYP2C19; Sprague-Dawley, rat, pooled rat liver microsomes, pH 7.4, probe omeprazole (1.07 µM, in seven-probe cocktail), IC50 CYP2C19, single components, RLM 0.2 mg/mL, 15 min, triplicate, mean ± SD) was 78.1 ± 5.25 µM, the “Response (% control) CYP2C19” value (CYP2C19; [5]) was 99.83 % control and the concentration at […] (in vivo; 0.083 h after oral CNP) was 0.38 ± 0.15 ng/mL. The concentration at 0.25 h (in vivo; 0.25 h after oral CNP) was 0.48 ± 0.07 ng/mL, the concentration at 0.5 h (in vivo; 0.5 h after oral CNP) was 0.53 ± 0.37 ng/mL and the concentration at 1 h (in vivo; 1 h after oral CNP) was 0.4 ± 0.23 ng/mL. The concentration at 1.5 h (in vivo; 1.5 h after oral CNP) was 0.43 ± 0.32 ng/mL, the concentration at 2 h (in vivo; 2 h after oral CNP) was 0.4 ± 0.14 ng/mL and the concentration at 3 h (in vivo; 3 h after oral CNP) was 0.53 ± 0.4 ng/mL. It also gave a concentration at 4 h (in vivo; 4 h after oral CNP) of 0.47 ± 0.13 ng/mL, a concentration at 6 h (in vivo; 6 h after oral CNP) of 0.37 ± 0.17 ng/mL and a concentration at 8 h (in vivo; 8 h after oral CNP) of 0.65 ± 0.2 ng/mL. It also gave a concentration at 12 h (in vivo; 12 h after oral CNP) of 0.6 ± 0.36 ng/mL, a concentration at 24 h (in vivo; 24 h after oral CNP) of 0.34 ± 0.12 ng/mL and a concentration at 48 h (in vivo; 48 h after oral CNP) of 0.13 ± 0.04 ng/mL. For the same compound, the AUC(0-inf) (in vivo; po, 60 mg/kg) was 16.7 ± 3.93 ng·h/mL, the AUC(0-t) (in vivo; po, 60 mg/kg) was 14 ± 5.03 ng·h/mL and the Cmax (in vivo; po, 60 mg/kg) was 0.78 ± 0.13 ng/mL. It also gave a Tmax (in vivo; po, 60 mg/kg) of 4.71 ± 3.71 h, a half-life (in vivo; po, 60 mg/kg) of 11.7 ± 2.09 h and a concentration at 0.25 h (in vivo; po, 60 mg·kg^−1) of 0.56 ± 0.15 ng/mL. It also gave a concentration at 0.5 h (in vivo; po, 60 mg·kg^−1) of 0.37 ± 0.12 ng/mL, a concentration at 1 h (in vivo; po, 60 mg·kg^−1) of 0.44 ± 0.19 ng/mL and a concentration at 1.5 h (in vivo; po, 60 mg·kg^−1) of 0.33 ± 0.21 ng/mL. It also gave a concentration at 2 h (in vivo; po, 60 mg·kg^−1) of 0.21 ± 0.05 ng/mL, a concentration at 3 h (in vivo; po, 60 mg·kg^−1) of 0.49 ± 0.29 ng/mL and a concentration at 4 h (in vivo; po, 60 mg·kg^−1) of 0.34 ± 0.32 ng/mL. It also gave a concentration at 6 h (in vivo; po, 60 mg·kg^−1) of 0.37 ± 0.13 ng/mL, a concentration at 8 h (in vivo; po, 60 mg·kg^−1) of 0.63 ± 0.14 ng/mL and a concentration at 12 h (in vivo; po, 60 mg·kg^−1) of 0.59 ± 0.27 ng/mL. It also gave a concentration at 24 h (in vivo; po, 60 mg·kg^−1) of 0.22 ± 0.13 ng/mL and a concentration at 48 h (in vivo; po, 60 mg·kg^−1) of 0.09 ± 0.01 ng/mL.

For `CC(=O)N1CCN(c2ccc(OCC3COC(Cn4ccnc4)(c4ccc(Cl)cc4Cl)O3)cc2)CC1` (stereo not shown) [KET, ketoconazole, reference compound], the IC50 (CYP3A4 [3]; pH 7.4, Tested IC50) is given as […] and the IC50 (CYP3A4 [4]) is given as […].
